Measurements taken from ChEMBL document CHEMBL1201862, “PubChem BioAssay data set” (2004).
Calls of active or inactive are those of the source.

Assays:
[1] = molecular target: T1, High affinity choline transporter 1 (Homo sapiens, UniProt Q9GZV3); test: human choline transporter blockers, potency – cell-based, 5-point CRC, membrane potential dye, dose response (AID 504840); assay type: functional
T1 sequence (Q9GZV3 whole entry): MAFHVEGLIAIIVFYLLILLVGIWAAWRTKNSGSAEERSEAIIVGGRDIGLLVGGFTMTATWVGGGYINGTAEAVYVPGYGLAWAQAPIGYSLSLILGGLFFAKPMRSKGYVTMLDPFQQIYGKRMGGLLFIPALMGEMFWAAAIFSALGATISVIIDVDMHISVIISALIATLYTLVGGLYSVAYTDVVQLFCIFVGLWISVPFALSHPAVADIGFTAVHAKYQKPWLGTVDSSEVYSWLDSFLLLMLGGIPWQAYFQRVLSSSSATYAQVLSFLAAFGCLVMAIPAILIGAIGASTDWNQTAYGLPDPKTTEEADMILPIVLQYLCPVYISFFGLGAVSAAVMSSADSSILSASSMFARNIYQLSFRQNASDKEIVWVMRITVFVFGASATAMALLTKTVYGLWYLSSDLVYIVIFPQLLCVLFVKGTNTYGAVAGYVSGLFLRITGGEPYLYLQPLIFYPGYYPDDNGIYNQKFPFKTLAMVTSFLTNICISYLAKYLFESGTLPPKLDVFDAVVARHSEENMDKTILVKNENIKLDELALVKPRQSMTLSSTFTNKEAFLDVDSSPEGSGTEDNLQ

[2] = Luminescence Cell-Based Dose Response HTS to Identify Activators of Luciferase Translation or Activity in H4 […] Cells. [Related pubchem assays: 1829 (Project Summary), 1814 (Primary HTS)]; assay type: functional
[3] = Luminescence Cell-Based Dose Confirmation HTS to Identify Activators of 5'UTR Stem-Loop Driven Alpha-Synuclein mRNA Translation in H4 Neuroglioblastoma Cells. [Related pubchem assays: 1829 (Project Summary), 1814 (Primary HTS)]; assay type: functional
[4] = Luminescence Cell-Based Dose Retest to Confirm Inhibitors of Cancer Stem Cells. [Related pubchem assays (depositor defined):AID2717, AID2721]; assay type: functional; settings: Homo sapiens
H4 = test: Luminescence Cell-Based Dose Response HTS to Identify Activators of 5'UTR Stem-Loop Driven Prion Protein mRNA Translation in H4 Neuroglioblastoma Cells. [Related pubchem assays: 1829 (Project Summary), 1814 (Primary HTS)]; assay type: functional; settings: Homo sapiens
[5] = molecular target: T2, Microphthalmia-associated transcription factor (Homo sapiens, UniProt O75030); test: reducers of TRPM1 reporter luminescence, concentration series – cell-based, SK-MEL-5, cherry-picked, set 3, MITF inhibitor project, dose response (AID 493073); assay type: functional;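 note: SK-MEL-5 melanoma cells with luciferase driven by the MITF target TRPM1 promoter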
T2 sequence (O75030 whole entry): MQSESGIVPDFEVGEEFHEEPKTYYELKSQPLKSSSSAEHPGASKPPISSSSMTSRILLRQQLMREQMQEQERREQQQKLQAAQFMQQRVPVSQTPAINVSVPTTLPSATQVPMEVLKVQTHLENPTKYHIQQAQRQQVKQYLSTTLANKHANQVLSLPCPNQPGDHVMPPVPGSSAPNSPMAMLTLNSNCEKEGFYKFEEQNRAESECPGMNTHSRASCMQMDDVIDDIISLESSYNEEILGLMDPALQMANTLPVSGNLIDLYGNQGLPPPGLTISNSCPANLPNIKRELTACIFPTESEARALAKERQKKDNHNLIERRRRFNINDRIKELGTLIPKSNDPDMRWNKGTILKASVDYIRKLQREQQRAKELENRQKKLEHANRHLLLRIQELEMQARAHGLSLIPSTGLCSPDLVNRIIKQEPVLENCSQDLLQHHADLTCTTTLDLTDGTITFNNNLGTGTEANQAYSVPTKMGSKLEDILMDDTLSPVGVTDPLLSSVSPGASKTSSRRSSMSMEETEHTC

[6] = molecular target: Dual specificity tyrosine-phosphorylation-regulated kinase 1A (Rattus norvegicus, UniProt Q63470); assay type: biochemical, Homo sapiens
[7] = viability loss of HMLE_sh_eGFP cells – cell-based, luminescence, counter-screen for HMLE_sh_ECad selective toxicity project, dose response (AID 463074); assay type: functional, Homo sapiens;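 note: HMLE human mammary epithelial cells expressing control shRNA against eGFP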
[8] = molecular target: T3, Rac GTPase-activating protein 1 (Homo sapiens, UniProt Q9H0H5); test: blockers of MgcRacGAP-driven Rac1 GTP hydrolysis – biochemical, ADP Hunter fluorescence, primary and confirmatory, confirmation (AID 624330); assay type: functional
T3 sequence (Q9H0H5 whole entry): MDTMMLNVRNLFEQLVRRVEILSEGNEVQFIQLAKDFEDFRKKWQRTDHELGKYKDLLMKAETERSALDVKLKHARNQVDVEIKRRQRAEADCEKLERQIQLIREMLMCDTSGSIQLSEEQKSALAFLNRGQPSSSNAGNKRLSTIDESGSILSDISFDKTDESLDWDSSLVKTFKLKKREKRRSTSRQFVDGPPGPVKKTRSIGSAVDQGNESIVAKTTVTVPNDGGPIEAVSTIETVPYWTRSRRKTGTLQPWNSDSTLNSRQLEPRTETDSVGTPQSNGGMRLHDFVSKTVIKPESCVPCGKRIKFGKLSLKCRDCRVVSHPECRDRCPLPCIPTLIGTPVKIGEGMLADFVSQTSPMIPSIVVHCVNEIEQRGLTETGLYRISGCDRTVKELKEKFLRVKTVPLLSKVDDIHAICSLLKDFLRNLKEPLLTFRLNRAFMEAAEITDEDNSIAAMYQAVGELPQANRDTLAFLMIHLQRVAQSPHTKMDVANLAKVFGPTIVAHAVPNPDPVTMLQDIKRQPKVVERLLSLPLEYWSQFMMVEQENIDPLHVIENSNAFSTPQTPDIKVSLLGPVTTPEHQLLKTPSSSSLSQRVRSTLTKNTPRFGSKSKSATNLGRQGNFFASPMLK

Large T antigen = Large T antigen (Simian virus 40, UniProt P03070); assay type: functional, Betapolyomavirus macacae;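 note: Confirmatory-stage PubChem screen for compounds that inhibit SV40 T antigen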
Streptokinase A = molecular target: T4, Streptokinase A (Streptococcus pyogenes serotype M1, UniProt P10520); test: viability-normalized secreted streptokinase activity reduction – plasminogen activation absorbance, OD405, dose response (AID 1914); assay type: functional, Streptococcus pyogenes M1 GAS;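 note: secreted streptokinase activity via plasminogen activation per viability signal from cell pellet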
T4 sequence (P10520 whole entry): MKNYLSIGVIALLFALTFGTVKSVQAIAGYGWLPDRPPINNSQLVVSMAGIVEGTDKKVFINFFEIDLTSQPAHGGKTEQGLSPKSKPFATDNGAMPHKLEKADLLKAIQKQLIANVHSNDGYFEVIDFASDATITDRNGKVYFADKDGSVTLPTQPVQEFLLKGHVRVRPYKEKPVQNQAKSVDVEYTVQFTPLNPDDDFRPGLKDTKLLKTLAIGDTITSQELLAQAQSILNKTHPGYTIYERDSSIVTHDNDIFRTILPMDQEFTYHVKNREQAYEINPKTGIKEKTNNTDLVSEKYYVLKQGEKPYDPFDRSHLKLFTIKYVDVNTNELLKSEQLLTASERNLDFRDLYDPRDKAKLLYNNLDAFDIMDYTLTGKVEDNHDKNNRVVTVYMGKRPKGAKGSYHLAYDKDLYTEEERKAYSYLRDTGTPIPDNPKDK

Streptococcus = test: GAS UMAA2166 growth inhibition – luminescence, BacTiterGlo, counter-screen for streptokinase expression inhibitor project, dose response (AID 1915); assay type: functional, organism-based;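 note: potency for reduction of bacterial viability or growth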
[9] = test system: Streptococcus sp. 'group A'; test: Streptococcus pyogenes SK(-)GAS viability under kanamycin – luminescence, BacTiterGlo, confirmation, counter-screen for streptokinase expression inhibitor project, dose response (AID 1900); assay type: functional, organism-based
[10] = molecular target: Delta-type opioid receptor (Homo sapiens, UniProt P41143); test: Counterscreen for agonists of heterodimerization of the mu 1 (OPRM1) and delta 1 (OPRD1) opioid receptors: Luminescence-based cell-based high throughput dose response assay to identify agonists of OPRD1 homodimerization. [Related pubchem assays (depositor defined):AID504326, AID504355, AID504692, AID504904, AID504905]; assay type: functional
Mu-type opioid receptor = Mu-type opioid receptor (Homo sapiens, UniProt P35372); test: Counterscreen for agonists of heterodimerization of the mu 1 (OPRM1) and delta 1 (OPRD1) opioid receptors: Luminescence-based cell-based high throughput dose response assay to identify agonists of OPRM1 homodimerization.; assay type: functional;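 note: U2OS cells expressing OPRM1 and beta-arrestin as split beta-galactosidase partners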
[11] = molecular target: 5-hydroxytryptamine receptor 5A (Homo sapiens, UniProt P47898); test: Counterscreen for agonists of OPRM1-OPRD1 heterodimerization: luminescence-based cell-based high throughput dose response assay to identify agonists of 5-hydroxytryptamine (serotonin) 5A receptor (HTR5A). [Related pubchem assays (depositor defined):AID504326, AID504355, AID504692, AID504904, AID504905]; assay type: functional
Cytochrome P450 1A2 = molecular target: T5, Cytochrome P450 1A2 (Homo sapiens, UniProt P05177);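 note: PubChem cytochrome P450 panel assay, CYP1A2 panel member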
T5 sequence (P05177 whole entry): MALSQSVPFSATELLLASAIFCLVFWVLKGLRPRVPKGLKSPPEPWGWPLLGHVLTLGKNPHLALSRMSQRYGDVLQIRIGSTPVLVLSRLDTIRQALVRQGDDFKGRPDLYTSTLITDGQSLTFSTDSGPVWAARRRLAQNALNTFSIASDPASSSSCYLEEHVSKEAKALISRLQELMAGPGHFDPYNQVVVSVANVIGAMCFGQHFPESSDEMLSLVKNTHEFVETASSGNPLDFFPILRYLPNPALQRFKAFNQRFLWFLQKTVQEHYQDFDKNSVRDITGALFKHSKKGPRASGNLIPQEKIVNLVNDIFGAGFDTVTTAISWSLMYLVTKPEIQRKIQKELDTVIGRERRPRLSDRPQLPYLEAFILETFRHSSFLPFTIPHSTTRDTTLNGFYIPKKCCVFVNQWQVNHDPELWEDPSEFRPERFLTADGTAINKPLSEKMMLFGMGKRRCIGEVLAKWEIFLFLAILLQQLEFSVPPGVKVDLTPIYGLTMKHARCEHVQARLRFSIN

Cytochrome P450 2C9 = Cytochrome P450 2C9 (Homo sapiens, UniProt P11712)
Cytochrome P450 2C19 = Cytochrome P450 2C19 (Homo sapiens, UniProt P33261); test: Cytochrome panel assay with activity outcomes. Panel member name: p450-cyp2c19 Compounds with AC50 equal or less than 10 uM are considered active; assay type: functional
[12] = non-specific 3'UTR reporter inhibition in Clone20-Shn3RL – cell-based, Renilla luciferase, cherry-picked, counter-screen for Shn3 inhibitor project, dose response (AID 624133); assay type: functional
[13] = reduction of Shn3 3'UTR-driven luciferase in osteoblasts – cell-based, Clone20 osteoblasts, firefly luciferase, cherry-picked, dose response (AID 624132); assay type: functional;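 note: firefly luciferase luminescence from reporter carrying the Shn3 3'UTR in osteoblasts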
[14] = molecular target: Glucose-6-phosphate 1-dehydrogenase (Homo sapiens, UniProt P11413); test: inhibition of Homo sapiens G6PD, dose series – biochemical, fluorescence, selectivity assay for P. falciparum G6PD inhibitor project, dose response (AID 504792); assay type: functional
[15] = loss of viability in HepG2 cells – cell-based, CellTiter-Glo, cherry-picked, cytotoxicity control for Shn3 inhibitor project, dose response (AID 624134); assay type: functional

Sequence of 5-hydroxytryptamine receptor 5A (P47898 whole entry): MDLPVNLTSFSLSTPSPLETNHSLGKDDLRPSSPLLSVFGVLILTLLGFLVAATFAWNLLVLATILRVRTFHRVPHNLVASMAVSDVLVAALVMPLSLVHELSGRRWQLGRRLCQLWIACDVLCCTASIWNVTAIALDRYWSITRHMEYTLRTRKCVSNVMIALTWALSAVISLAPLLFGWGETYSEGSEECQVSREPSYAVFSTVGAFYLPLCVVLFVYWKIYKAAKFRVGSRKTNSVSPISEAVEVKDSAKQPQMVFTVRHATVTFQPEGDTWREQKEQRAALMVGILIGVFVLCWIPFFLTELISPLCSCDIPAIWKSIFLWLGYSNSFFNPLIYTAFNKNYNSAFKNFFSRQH
Sequence of Mu-type opioid receptor (P35372 whole entry): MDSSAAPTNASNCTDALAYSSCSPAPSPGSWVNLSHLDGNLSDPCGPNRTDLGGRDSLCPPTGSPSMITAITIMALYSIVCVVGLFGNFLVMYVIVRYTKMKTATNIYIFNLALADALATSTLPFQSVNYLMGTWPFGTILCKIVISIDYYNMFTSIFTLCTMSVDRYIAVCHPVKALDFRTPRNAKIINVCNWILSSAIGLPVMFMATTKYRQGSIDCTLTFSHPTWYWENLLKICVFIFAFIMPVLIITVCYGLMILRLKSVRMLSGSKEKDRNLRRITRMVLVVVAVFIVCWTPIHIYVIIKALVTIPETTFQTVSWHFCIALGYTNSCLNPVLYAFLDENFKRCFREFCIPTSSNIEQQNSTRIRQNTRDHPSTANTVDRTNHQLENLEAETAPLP
Sequence of Delta-type opioid receptor (P41143 whole entry): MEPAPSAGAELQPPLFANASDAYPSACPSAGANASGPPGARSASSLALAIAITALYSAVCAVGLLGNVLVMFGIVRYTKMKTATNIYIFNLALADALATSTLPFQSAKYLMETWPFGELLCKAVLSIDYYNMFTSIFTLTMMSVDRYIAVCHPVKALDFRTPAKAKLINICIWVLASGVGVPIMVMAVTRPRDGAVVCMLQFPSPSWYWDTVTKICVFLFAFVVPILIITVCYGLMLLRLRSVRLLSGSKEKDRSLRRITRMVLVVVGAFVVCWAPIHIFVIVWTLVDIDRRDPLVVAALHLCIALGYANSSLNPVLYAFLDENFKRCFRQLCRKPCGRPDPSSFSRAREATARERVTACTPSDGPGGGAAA
Sequence of Cytochrome P450 2C9 (P11712 whole entry): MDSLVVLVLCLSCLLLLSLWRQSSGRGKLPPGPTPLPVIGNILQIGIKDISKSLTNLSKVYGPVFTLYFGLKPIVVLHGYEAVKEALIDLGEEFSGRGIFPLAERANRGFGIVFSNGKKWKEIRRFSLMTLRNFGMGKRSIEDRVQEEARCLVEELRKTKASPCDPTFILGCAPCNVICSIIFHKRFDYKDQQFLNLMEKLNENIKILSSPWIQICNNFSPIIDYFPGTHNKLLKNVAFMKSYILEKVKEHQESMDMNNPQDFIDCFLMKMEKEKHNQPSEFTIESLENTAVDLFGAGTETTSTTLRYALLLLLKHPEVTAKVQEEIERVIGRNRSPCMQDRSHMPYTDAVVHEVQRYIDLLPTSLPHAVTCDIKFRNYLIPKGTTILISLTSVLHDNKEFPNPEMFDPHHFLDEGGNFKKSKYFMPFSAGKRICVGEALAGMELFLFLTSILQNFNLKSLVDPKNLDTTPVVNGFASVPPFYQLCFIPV
Sequence of Glucose-6-phosphate 1-dehydrogenase (P11413 whole entry): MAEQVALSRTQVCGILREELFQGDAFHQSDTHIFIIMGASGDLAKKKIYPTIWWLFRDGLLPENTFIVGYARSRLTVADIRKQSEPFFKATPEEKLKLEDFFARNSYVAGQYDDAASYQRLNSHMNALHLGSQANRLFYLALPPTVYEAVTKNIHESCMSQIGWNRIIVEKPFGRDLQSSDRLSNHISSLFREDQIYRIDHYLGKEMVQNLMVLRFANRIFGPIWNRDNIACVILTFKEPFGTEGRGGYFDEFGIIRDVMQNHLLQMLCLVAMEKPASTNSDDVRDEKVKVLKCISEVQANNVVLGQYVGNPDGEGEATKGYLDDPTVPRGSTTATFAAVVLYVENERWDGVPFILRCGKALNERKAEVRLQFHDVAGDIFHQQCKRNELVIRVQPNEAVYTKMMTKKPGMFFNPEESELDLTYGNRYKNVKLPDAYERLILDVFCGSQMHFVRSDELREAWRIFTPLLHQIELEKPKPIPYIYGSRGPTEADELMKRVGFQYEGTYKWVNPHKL
Sequence of Large T antigen (P03070 whole entry): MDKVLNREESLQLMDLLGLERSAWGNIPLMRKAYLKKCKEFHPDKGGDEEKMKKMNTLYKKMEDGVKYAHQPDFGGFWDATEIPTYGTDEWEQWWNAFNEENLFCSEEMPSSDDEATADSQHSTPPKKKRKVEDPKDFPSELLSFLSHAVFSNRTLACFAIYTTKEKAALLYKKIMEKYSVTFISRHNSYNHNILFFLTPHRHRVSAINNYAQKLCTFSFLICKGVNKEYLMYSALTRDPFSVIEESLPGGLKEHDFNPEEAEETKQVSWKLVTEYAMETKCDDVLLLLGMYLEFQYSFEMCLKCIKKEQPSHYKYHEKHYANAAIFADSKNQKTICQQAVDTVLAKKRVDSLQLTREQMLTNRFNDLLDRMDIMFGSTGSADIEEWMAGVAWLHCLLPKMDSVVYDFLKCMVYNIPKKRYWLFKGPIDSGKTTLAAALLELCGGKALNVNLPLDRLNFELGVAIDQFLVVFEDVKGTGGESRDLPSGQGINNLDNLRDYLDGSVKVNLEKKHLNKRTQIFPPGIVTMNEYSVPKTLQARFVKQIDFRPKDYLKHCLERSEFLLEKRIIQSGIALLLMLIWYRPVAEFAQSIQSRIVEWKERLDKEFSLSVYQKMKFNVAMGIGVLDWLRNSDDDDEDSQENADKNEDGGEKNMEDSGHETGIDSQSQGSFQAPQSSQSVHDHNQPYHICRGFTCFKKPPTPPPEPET
Sequence of Cytochrome P450 2C19 (P33261 whole entry): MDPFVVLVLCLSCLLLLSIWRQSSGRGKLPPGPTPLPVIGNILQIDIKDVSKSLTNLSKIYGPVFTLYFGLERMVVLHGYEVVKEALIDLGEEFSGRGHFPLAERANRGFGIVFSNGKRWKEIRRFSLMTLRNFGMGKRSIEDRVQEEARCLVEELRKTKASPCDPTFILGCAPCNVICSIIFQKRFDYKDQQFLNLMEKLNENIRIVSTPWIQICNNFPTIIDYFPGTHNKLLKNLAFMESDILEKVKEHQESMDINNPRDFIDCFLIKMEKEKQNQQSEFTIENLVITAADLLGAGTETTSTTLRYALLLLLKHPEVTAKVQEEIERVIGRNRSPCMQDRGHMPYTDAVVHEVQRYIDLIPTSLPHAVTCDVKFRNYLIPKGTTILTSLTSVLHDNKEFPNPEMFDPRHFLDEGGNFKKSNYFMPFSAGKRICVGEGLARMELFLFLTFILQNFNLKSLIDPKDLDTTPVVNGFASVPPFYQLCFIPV

In the case of `Cc1cc(/C=N/NC(=O)C(=O)N2CCCC2)c(C)n1-c1cccc(Br)c1`, the IC50 [1] is reported as 13.8 µM (active).
In the case of `CC1CCCCC1NC(=O)c1c(O)n2ccccc2nc1=O` (configuration not stated), the IC50 [1] is reported as 4.79 µM (active).
With `CC(NC(=O)c1ccc([N+](=O)[O-])o1)C12CC3CC(CC(C3)C1)C2` (configuration not stated) the EC50 [2] was > 120 µM (not active), the EC50 [3] was > 120 µM (not active) and the AC50 [4] was 4.68 µM (active). For the same molecule, the EC50 (H4) was 13.8 µM (active) and the AC50 [5] was 15.1 µM (active).
For `CCN1CCN(c2ncnc3scc(-c4ccc(OC)cc4)c23)CC1`, the IC50 [1] was 12.9 µM (active).
In the case of `Nc1nc2cc([N+](=O)[O-])ccc2[nH]1`, the AC50 [6] is reported as 7.07 µM (active).
In the case of `Cc1cc(C)nc(-n2ncc3c2CC(c2cccc(Cl)c2)CC3=O)n1` (configuration not stated), the AC50 [4] is reported as 29.1 µM (active) and the AC50 [7] is reported as 46.8 µM (active).
With `CC(/C=C/c1ccc(O)cc1)=N/O` the IC50 [8] was 10.5 µM (active), the AC50 [6] was 1.54 µM (active) and the IC50 (Large T antigen) was 8.82 µM (active).
For `O=C(CSc1nnc(-c2ccc3c(c2)OCO3)o1)Nc1ncc(C(F)(F)F)cc1Cl`, the AC50 [4] was 5.84 µM (active), the EC50 (Streptokinase A) was > 150 µM (not active) and the AC50 [7] was 28.5 µM (active). The EC50 (Streptococcus) was 20.4 µM (active) and the EC50 [9] was 1.16 µM (active).
With `Brc1ccc(NC2=Nc3ccccc3CC2)cc1` the EC50 [10] was > 92.5 µM (inactive), the EC50 (Mu-type opioid receptor) was 52.1 µM (inactive) and the EC50 [11] was > 92.5 µM (inactive).
In the case of `COc1ccc(C(C(=O)NC2CCCCC2)N(C(=O)Cc2c[nH]c3ccccc23)c2ccc(NC(C)=O)cc2)cc1OC` (configuration not stated), the EC50 [10] is reported as > 92.5 µM (inactive), the EC50 (Mu-type opioid receptor) is reported as > 92.5 µM (inactive) and the EC50 [11] is reported as > 92.5 µM (inactive). For the same molecule, the AC50 (Cytochrome P450 1A2) was 25.1 µM (inconclusive) and the AC50 (Cytochrome P450 2C9) was 12.6 µM (inconclusive).
For `Cc1ccc(C(=O)N/C(=C\c2ccc(-c3ccccc3[N+](=O)[O-])o2)C(=O)NCCN(C)C)cc1`, the AC50 [5] was 4.87 µM (active).
In the case of `CC1=NC(C)(C)Cc2ccccc21.O=C(O)c1ccccc1O`, the IC50 [1] is reported as 13.2 µM (active) and the AC50 (Cytochrome P450 2C19) is reported as “inconclusive”.
For `COC(=O)c1cc2c(n1S(=O)(=O)c1ccc(C)cc1)C(=O)C(=O)c1[nH]cc(C(=O)OCc3ccccc3)c1-2`, the EC50 [10] was > 92.4 µM (inactive), the EC50 (Mu-type opioid receptor) was > 92.4 µM (inactive) and the EC50 [11] was > 92.4 µM (inactive). The AC50 [12] was 1.64 µM (active), the AC50 [13] was 1.2 µM (active) and the IC50 [14] was > 80 µM (inactive). For the same molecule, the AC50 [15] was 1.94 µM (active).
